The structures appear in SMILES notation. Where a SMILES comes first, the peptide text is derived from it. Bridges are numbered along the chain shown (N, C = ends).

ACE-2, sequence (Q9BYF1 18-740): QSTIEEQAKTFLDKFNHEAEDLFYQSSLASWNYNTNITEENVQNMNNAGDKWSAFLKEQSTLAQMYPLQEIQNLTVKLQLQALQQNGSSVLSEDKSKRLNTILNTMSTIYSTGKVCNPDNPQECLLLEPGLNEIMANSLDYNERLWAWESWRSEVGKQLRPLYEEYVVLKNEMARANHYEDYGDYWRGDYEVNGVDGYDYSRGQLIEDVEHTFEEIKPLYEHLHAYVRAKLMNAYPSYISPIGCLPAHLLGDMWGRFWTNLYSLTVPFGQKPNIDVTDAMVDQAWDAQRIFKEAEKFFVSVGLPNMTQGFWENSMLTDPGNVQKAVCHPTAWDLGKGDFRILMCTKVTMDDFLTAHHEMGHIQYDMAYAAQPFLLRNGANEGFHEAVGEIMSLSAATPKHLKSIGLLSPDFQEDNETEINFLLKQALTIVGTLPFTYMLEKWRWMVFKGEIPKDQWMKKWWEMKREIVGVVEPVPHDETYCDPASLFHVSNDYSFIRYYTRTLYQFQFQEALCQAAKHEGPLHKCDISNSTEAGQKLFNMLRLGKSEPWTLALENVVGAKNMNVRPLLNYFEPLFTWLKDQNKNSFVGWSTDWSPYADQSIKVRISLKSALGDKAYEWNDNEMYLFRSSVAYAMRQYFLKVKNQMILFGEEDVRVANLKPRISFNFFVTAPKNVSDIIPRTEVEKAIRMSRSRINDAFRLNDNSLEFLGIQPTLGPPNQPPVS

The first assay concerns the target ACE-2 (Homo sapiens, UniProt Q9BYF1). Kind of assay: Fluorometric ACE-2 inhibition assay with peptide M-2195 as substrate. The format is biochemical. Details: nucleotides corresponding to the extracellular domain (M1-S740); FLAG; made in house; host or cells: Sf9 insect cells, recombinant baculovirus (transfer vector pA2); enzyme purified from conditioned media. Particulars: ACE-2, M-2195 substrate. How it is done: Substrate stock (10 μL of 10× concentration) was added to each well to be tested in blocks of three vertically down the plate. The reaction was monitored on a Spectrafluor Plus (Tecan) at an excitation wavelength of 340 nm and an emission wavelength of 400 nm (+/−35 nm) every 30 seconds for a time period of 10 minutes.
ACE-2 cleaves off the C-terminal lysine from the peptide with a concomitant increase in fluorescence signal.
The assays were performed in 96-well clear-bottom black plates (Costar, 07-200-590). In each well, 0.45 μg (5 pmoles) of ACE-2 is added to 90 μL of an assay solution containing 100 mM TRIS at pH 7.4, 0.1% Tween, and 0.4% DMSO. Substrate stock at 10 μL of 10× concentration is added to each well (for example, 10 μL of 1 mM stock for a final 100 μM concentration). The reaction was monitored on a Spectrafluor Plus (Tecan) at an excitation wavelength of 340 nm and an emission wavelength of 400 nm (+/−35 nm) every 30 seconds up to 10 minutes. All samples were measured in triplicate. […]
By Ki is commonly meant the dissociation constant of the complex between target and ligand, obtained from inhibition or displacement. For `CSCC[C@@H]1NC(=O)[C@H](Cc2c[nH]c3ccccc23)NC(=O)[C@@H]2CCCN2C(=O)[C@H](CO)NC(=O)[C@H](CCC(N)=O)NC(=O)[C@H](CCCNC(=N)N)NC(=O)[C@H](CCC(N)=O)NC(=O)[C@@H]2CCCN2C(=O)[C@H](CCCCN)NC(=O)[C@@H](NC(=O)[C@H](Cc2c[nH]cn2)NC(=O)[C@H](CC(C)C)NC(=O)[C@H](CCCNC(=N)N)NC(=O)[C@H](CC(=O)O)NC(=O)CNC(C)=O)CSSC[C@@H](C(=O)N[C@@H](CCC(N)=O)C(=O)N[C@@H](Cc2c[nH]cn2)C(=O)N[C@@H](CC(C)C)C(=O)N[C@@H](CC(=O)O)C(=O)N2CCC[C@H]2C(=O)N[C@@H](CCC(=O)O)C(=O)NCC(=O)NCC(=O)NCC(N)=O)NC(=O)[C@H](CCCCN)NC1=O` [DX-512] (Ac-GDRLHCKPQRQSPWMKCQHLDPEGGG-NH2; disulfide 6-17), the Ki was found to be 150 nM.
`CC(=O)NCC(=O)N[C@@H](CC(=O)O)C(=O)N[C@@H](CC(C)C)C(=O)N[C@@H](Cc1c[nH]cn1)C(=O)N[C@@H](C)C(=O)N[C@H]1CSSC[C@@H](C(=O)N[C@H](C(=O)N[C@@H](CC(C)C)C(=O)NCC(=O)N[C@@H](CC(=O)O)C(=O)N2CCC[C@H]2C(=O)N[C@@H](CCC(=O)O)C(=O)NCC(=O)NCC(=O)NCC(N)=O)[C@@H](C)O)NC(=O)[C@H](C)NC(=O)[C@H](Cc2c[nH]c3ccccc23)NC(=O)[C@H](Cc2c[nH]c3ccccc23)NC(=O)[C@@H]2CCCN2C(=O)[C@H](CC(=O)O)NC(=O)CNC(=O)[C@H](CCCNC(=N)N)NC(=O)[C@H](C(C)C)NC(=O)[C@@H]2CCCN2C(=O)[C@H](CCCNC(=N)N)NC1=O` [DX-513] (Ac-GDLHACRPVRGDPWWACTLGDPEGGG-NH2; disulfide 6-17): the Ki amounted to 150 nM.

The assay is the same for the next values; noted with them: inhibition of ACE-2 activity, M-2195 substrate; class by % inhibition at ~100 μM and IC50.
Regarding `CSCC[C@@H]1NC(=O)[C@H](Cc2c[nH]c3ccccc23)NC(=O)[C@@H]2CCCN2C(=O)[C@H](CO)NC(=O)[C@H](CCC(N)=O)NC(=O)[C@H](CCCNC(=N)N)NC(=O)[C@H](CCC(N)=O)NC(=O)[C@@H]2CCCN2C(=O)[C@H](CCCCN)NC(=O)[C@@H](NC(=O)[C@H](Cc2c[nH]cn2)NC(=O)[C@H](CC(C)C)NC(=O)[C@H](CCCNC(=N)N)NC(=O)[C@H](CC(=O)O)NC(=O)CNC(C)=O)CSSC[C@@H](C(=O)N[C@@H](CCC(N)=O)C(=O)N[C@@H](Cc2c[nH]cn2)C(=O)N[C@@H](CC(C)C)C(=O)N[C@@H](CC(=O)O)C(=O)N2CCC[C@H]2C(=O)N[C@@H](CCC(=O)O)C(=O)NCC(=O)NCC(=O)NCC(N)=O)NC(=O)[C@H](CCCCN)NC1=O` [DX-512] (Ac-GDRLHCKPQRQSPWMKCQHLDPEGGG-NH2; disulfide 6-17), the Inhibition entry was “++++ (signifies very strong inhibition (˜100% inhibition at 100 μM; with IC50 0.15 μM))”.
Same read-out and setting: with `CC(=O)NCC(=O)N[C@@H](CC(=O)O)C(=O)N[C@@H](CC(C)C)C(=O)N[C@@H](Cc1c[nH]cn1)C(=O)N[C@@H](C)C(=O)N[C@H]1CSSC[C@@H](C(=O)N[C@H](C(=O)N[C@@H](CC(C)C)C(=O)NCC(=O)N[C@@H](CC(=O)O)C(=O)N2CCC[C@H]2C(=O)N[C@@H](CCC(=O)O)C(=O)NCC(=O)NCC(=O)NCC(N)=O)[C@@H](C)O)NC(=O)[C@H](C)NC(=O)[C@H](Cc2c[nH]c3ccccc23)NC(=O)[C@H](Cc2c[nH]c3ccccc23)NC(=O)[C@@H]2CCCN2C(=O)[C@H](CC(=O)O)NC(=O)CNC(=O)[C@H](CCCNC(=N)N)NC(=O)[C@H](C(C)C)NC(=O)[C@@H]2CCCN2C(=O)[C@H](CCCNC(=N)N)NC1=O` [DX-513] (Ac-GDLHACRPVRGDPWWACTLGDPEGGG-NH2; disulfide 6-17) the entry was “++++ (signifies very strong inhibition (˜100% inhibition at 100 μM; with IC50 0.15 μM))”; with `CC[C@H](C)[C@H](NC(=O)[C@H](CCCNC(=N)N)NC(=O)[C@H](CO)NC(=O)CNC(C)=O)C(=O)NCC(=O)N[C@H]1CSSC[C@@H](C(=O)N[C@@H](CC(N)=O)C(=O)N[C@@H](Cc2c[nH]c3ccccc23)C(=O)N[C@@H](Cc2c[nH]c3ccccc23)C(=O)N[C@@H](C)C(=O)N2CCC[C@H]2C(=O)NCC(=O)N[C@@H](CCC(=O)O)C(=O)NCC(=O)NCC(=O)NCC(N)=O)NC(=O)[C@H](CCCNC(=N)N)NC(=O)[C@H](CO)NC(=O)[C@H](CC(=O)O)NC(=O)[C@H](CCCNC(=N)N)NC1=O` [DX-524] (Ac-GSRIGCRDSRCNWWAPGEGGG-NH2; disulfide 6-11), “+++ (signifies strong inhibition (˜99% inhibition at ˜100 μM; with IC50 between 0.4-1 μM))”.
Take `CC(=O)NCC(=O)N[C@@H](CO)C(=O)N[C@@H](CCCNC(=N)N)C(=O)NCC(=O)N[C@@H](Cc1ccccc1)C(=O)N[C@H]1CSSC[C@@H](C(=O)N[C@@H](CO)C(=O)N[C@@H](Cc2ccccc2)C(=O)N2CCC[C@H]2C(=O)N[C@@H](C)C(=O)N2CCC[C@H]2C(=O)NCC(=O)N[C@@H](CCC(=O)O)C(=O)NCC(=O)NCC(=O)NCC(N)=O)NC(=O)[C@H](CO)NC(=O)[C@H](CO)NC(=O)[C@H](CC(=O)O)NC(=O)[C@H](CCCNC(=N)N)NC1=O` [DX-525] (Ac-GSRGFCRDSSCSFPAPGEGGG-NH2; disulfide 6-11): the Inhibition entry is reported as “+++ (signifies strong inhibition (˜99% inhibition at ˜100 μM; with IC50 between 0.4-1 μM))”.
Consider `CSCC[C@@H]1NC(=O)[C@H](CCSC)NC(=O)[C@@H]2CCCN2C(=O)[C@H](C)NC(=O)[C@H](Cc2c[nH]c3ccccc23)NC(=O)[C@H](Cc2c[nH]cn2)NC(=O)[C@@H](NC(=O)[C@@H](NC(=O)[C@H](CCC(=O)O)NC(=O)[C@H](Cc2c[nH]c3ccccc23)NC(=O)CNC(=O)[C@H](C)NC(C)=O)C(C)C)CSSC[C@@H](C(=O)N[C@@H](CCCCN)C(=O)N[C@@H](Cc2c[nH]cn2)C(=O)NCC(=O)NCC(=O)N[C@H](C(=O)N[C@@H](CCC(=O)O)C(=O)NCC(=O)NCC(=O)NCC(N)=O)[C@@H](C)O)NC1=O` [DX-529] (Ac-AGWEVCHWAPMMCKHGGTEGGG-NH2; disulfide 6-13), for which the Inhibition entry is “+++ (signifies strong inhibition (˜99% inhibition at ˜100 μM; with IC50 between 0.4-1 μM))”.
For the molecule `CC(=O)N[C@@H](C)C(=O)NCC(=O)N[C@@H](CO)C(=O)N[C@@H](CC(=O)O)C(=O)N[C@@H](Cc1c[nH]c2ccccc12)C(=O)N[C@H]1CSSC[C@@H](C(=O)N[C@@H](Cc2ccccc2)C(=O)N[C@@H](Cc2c[nH]cn2)C(=O)N[C@@H](CCC(N)=O)C(=O)NCC(=O)N[C@H](C(=O)N[C@@H](CCC(=O)O)C(=O)NCC(=O)NCC(=O)NCC(N)=O)[C@@H](C)O)NC(=O)[C@@H]2CCCN2C(=O)[C@H](CC(N)=O)NC(=O)[C@H](CC(N)=O)NC(=O)[C@H](Cc2c[nH]c3ccccc23)NC(=O)[C@H]([C@@H](C)O)NC(=O)CNC1=O` [DX-531] (Ac-AGSDWCGTWNNPCFHQGTEGGG-NH2; disulfide 6-13), the Inhibition result is on record as “+++ (signifies strong inhibition (˜99% inhibition at ˜100 μM; with IC50 between 0.4-1 μM))”.
For the molecule `CC(=O)NCC(=O)N[C@@H](CC(=O)O)C(=O)N[C@@H](CCCNC(=N)N)C(=O)N[C@@H](Cc1ccc(O)cc1)C(=O)N[C@@H](CC(C)C)C(=O)N[C@H]1CSSC[C@@H](C(=O)N[C@@H](CC(N)=O)C(=O)N[C@@H](Cc2c[nH]c3ccccc23)C(=O)N[C@@H](Cc2ccccc2)C(=O)N[C@@H](CC(=O)O)C(=O)N2CCC[C@H]2C(=O)N[C@@H](CCC(=O)O)C(=O)NCC(=O)NCC(=O)NCC(N)=O)NC(=O)[C@H](Cc2ccccc2)NC(=O)[C@H](CCCCN)NC(=O)[C@H](Cc2c[nH]c3ccccc23)NC(=O)[C@@H]2CCCN2C(=O)[C@H](CCCCN)NC(=O)[C@H](CC(=O)O)NC(=O)[C@H](CCCNC(=N)N)NC(=O)[C@H](CCC(N)=O)NC(=O)[C@@H]2CCCN2C(=O)[C@H](CC(C)C)NC1=O` [DX-599] (Ac-GDRYLCLPQRDKPWKFCNWFDPEGGG-NH2; disulfide 6-17), the Inhibition entry is listed as “++++ (signifies very strong inhibition (˜100% inhibition at 100 μM; with IC50 0.15 μM))”.
On the same count and under the same terms, with `CC(=O)NCC(=O)N[C@@H](CC(=O)O)C(=O)N[C@@H](Cc1ccc(O)cc1)C(=O)N[C@@H](CO)C(=O)N[C@@H](Cc1c[nH]cn1)C(=O)N[C@H]1CSSC[C@@H](C(=O)N[C@H](C(=O)N[C@@H](Cc2ccc(O)cc2)C(=O)N2CCC[C@H]2C(=O)N[C@@H](CC(=O)O)C(=O)N2CCC[C@H]2C(=O)N[C@@H](CCC(=O)O)C(=O)NCC(=O)NCC(=O)NCC(N)=O)[C@@H](C)O)NC(=O)[C@H](CCCCN)NC(=O)[C@H](Cc2c[nH]c3ccccc23)NC(=O)[C@H](Cc2c[nH]c3ccccc23)NC(=O)[C@@H]2CCCN2C(=O)[C@H](Cc2ccc(O)cc2)NC(=O)[C@H](Cc2ccc(O)cc2)NC(=O)[C@H](CCCNC(=N)N)NC(=O)[C@H](CC(C)C)NC(=O)[C@@H]2CCCN2C(=O)[C@H](CO)NC1=O` [DX-600] the entry was “++++ (signifies very strong inhibition (˜100% inhibition at 100 μM; with IC50 0.15 μM))”; with `CC[C@H](C)[C@@H]1NC(=O)[C@@H]2CCCN2C(=O)[C@H](CO)NC(=O)[C@@H](NC(=O)[C@@H](NC(=O)[C@H](Cc2ccccc2)NC(=O)CNC(=O)[C@H](CC(=O)O)NC(=O)CNC(C)=O)[C@@H](C)O)CSSC[C@@H](C(=O)N[C@@H](CC(=O)O)C(=O)N[C@@H](CC(C)C)C(=O)NCC(=O)N[C@@H](CC(=O)O)C(=O)N2CCC[C@H]2C(=O)N[C@@H](CCC(=O)O)C(=O)NCC(=O)NCC(=O)NCC(N)=O)NC(=O)[C@H](CCCNC(=N)N)NC(=O)[C@H](Cc2ccccc2)NC(=O)[C@H](Cc2c[nH]c3ccccc23)NC(=O)[C@@H]2CCCN2C(=O)[C@H](Cc2ccccc2)NC(=O)[C@H](CCSC)NC(=O)[C@H](CCCNC(=N)N)NC1=O` [DX-601] (Ac-GDGFTCSPIRMFPWFRCDLGDPEGGG-NH2; disulfide 6-17), “++++ (signifies very strong inhibition (˜100% inhibition at 100 μM; with IC50 0.15 μM))”; with `CC(=O)NCC(=O)N[C@@H](CC(=O)O)C(=O)N[C@@H](Cc1ccccc1)C(=O)N[C@@H](CO)C(=O)N1CCC[C@H]1C(=O)N[C@H]1CSSC[C@@H](C(=O)N2CCC[C@H]2C(=O)N[C@@H](CO)C(=O)NCC(=O)N[C@@H](CC(=O)O)C(=O)N2CCC[C@H]2C(=O)N[C@@H](CCC(=O)O)C(=O)NCC(=O)NCC(=O)NCC(N)=O)NC(=O)[C@H](C(C)C)NC(=O)[C@H](Cc2c[nH]c3ccccc23)NC(=O)[C@H](Cc2c[nH]c3ccccc23)NC(=O)[C@@H]2CCCN2C(=O)[C@H](CO)NC(=O)[C@H](Cc2c[nH]cn2)NC(=O)[C@H](CCCNC(=N)N)NC(=O)[C@H](CC(C)C)NC(=O)[C@H](C)NC(=O)[C@H](CCCCN)NC1=O` [DX-602] (Ac-GDFSPCKALRHSPWWVCPSGDPEGGG-NH2; disulfide 6-17), “++++ (signifies very strong inhibition (˜100% inhibition at 100 μM; with IC50 0.15 μM))”.

The record behind these values is US20030091557A1, “Methods and compositions for modulating ACE-2 activity” (priority 2001, published 2003).
